In patent publication US9840532B2, “5′-substituted nucleoside compounds” (Eli Lilly and Company, priority 2015, dated 2017):
pEC50, pIC50: −log10 of the molar value.

Key:
[1] = system: Molt 4 cells; test: Xenograft tumor model, acute lymphoblastic leukemia (Molt 4); format: in vivo, mouse; details: 60 mg/kg BID for 30 days, oral gavage
Experimental: The purpose of this assay is to measure in a mouse model of cancer the reduction in tumor volume in response to test compound administration.
Grow A375 (melanoma) cells in DMEM/High glucose (HYCLONE™ cat. # SH30022) with 10% HI FBS (GIBCO® cat. #10082-147). Grow Will-2 (DLBCL) cells in RPMI 1640 with L-glutamine and 20% heat inactivated FBS. Grow Namalwa (Burkitt's lymphoma) cells (ATCC) in RPMI 1640 media supplemented with L-glutamine, 25 mM HEPES (GIBCO® 22400-089), 1 mM sodium pyruvate and 7.5% FBS. Grow Molt 4 cells in RPMI 1640 with L-glutamine, 25 mM HEPES [GIBCO 22400-089], 1 mM sodium pyruvate, and 10% FBS. Harvest cells and inject subcutaneously onto the rear flank of nude mice (A375: 5×10^6 cells/animal, mixed 1:1 with MATRIGEL®; Will-2; 1×10^7 cells/animal; Namalwa: 2×10^6 cells/animal; Molt 4: : 5×10^6 cells/animal, mixed 1:1 with MATRIGEL®). When tumors are established (approximately 200 mm^3, 7-21 days after implant), randomize animals, and group them into control and test groups. Formulate the test compound in 1% HEC/0.25% TWEEN®-80/0.05% Antifoam. Administer test compound and vehicles by oral gavage. Determine tumor response by tumor volume measurement (caliper) performed twice a week during the course of treatment and report as the percent inhibition of tumor volume versus the vehicle control group.

[2] = target: T1, PRMT5/MEP50 complex (Homo sapiens, UniProt O14744); test: PRMT5/MEP50 SPA Assay; format: biochemical; details: Mean ± SEM
T1 construct: FLAG; made in house; host or cells: baculovirus/Sf9 insect cells
T1 sequence (O14744 whole entry): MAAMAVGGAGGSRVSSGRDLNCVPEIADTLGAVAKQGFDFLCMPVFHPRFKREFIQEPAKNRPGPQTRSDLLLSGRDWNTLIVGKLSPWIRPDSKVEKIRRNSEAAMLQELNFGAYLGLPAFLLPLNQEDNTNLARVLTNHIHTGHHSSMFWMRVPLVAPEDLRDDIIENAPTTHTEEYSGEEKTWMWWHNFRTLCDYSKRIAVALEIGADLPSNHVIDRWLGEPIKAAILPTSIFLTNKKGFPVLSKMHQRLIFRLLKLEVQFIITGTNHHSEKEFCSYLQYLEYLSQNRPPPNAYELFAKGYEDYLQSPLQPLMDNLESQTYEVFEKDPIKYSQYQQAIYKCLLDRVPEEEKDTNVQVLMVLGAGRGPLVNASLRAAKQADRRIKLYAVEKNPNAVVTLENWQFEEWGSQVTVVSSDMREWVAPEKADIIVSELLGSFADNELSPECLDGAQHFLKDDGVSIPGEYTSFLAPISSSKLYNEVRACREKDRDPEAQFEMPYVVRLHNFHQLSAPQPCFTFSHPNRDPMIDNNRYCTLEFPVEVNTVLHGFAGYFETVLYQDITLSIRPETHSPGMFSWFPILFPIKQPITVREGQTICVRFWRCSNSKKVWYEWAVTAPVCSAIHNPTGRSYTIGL
T1 sequence (Q9BQA1 whole entry partner): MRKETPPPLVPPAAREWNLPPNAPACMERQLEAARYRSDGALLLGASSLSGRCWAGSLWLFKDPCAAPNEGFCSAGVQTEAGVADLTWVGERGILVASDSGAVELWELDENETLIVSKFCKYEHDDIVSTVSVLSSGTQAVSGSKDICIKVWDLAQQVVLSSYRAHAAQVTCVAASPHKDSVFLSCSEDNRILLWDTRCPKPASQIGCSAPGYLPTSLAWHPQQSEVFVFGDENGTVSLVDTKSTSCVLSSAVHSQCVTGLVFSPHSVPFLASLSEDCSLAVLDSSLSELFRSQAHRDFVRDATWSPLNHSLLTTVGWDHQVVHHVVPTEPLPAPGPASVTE
Source text: The purpose of this assay is to measure the ability of a test compound to inhibit the enzyme activity of PRMT5 in vitro by inhibiting the catalytic activity of PRMT5/MEP50 complex, indicated by the transfer of radiolabeled methyl-^3H to a substrate peptide derived from the N-terminal sequence of the human histone H4.
Express the PRMT5/MEP50 enzyme complex using a baculovirus/Sf9 system and purify using anti-FLAG affinity chromatography, (essentially as described in preparations by Stephen Antonysamy, Zahid Bonday, Robert M. Campbell, Brandon Doyle, Zhanna Druzina, Tarun Gheyi, Bomie Han, Louis N. Jungheim, Yuewei Qian, Charles Rauch, Marijane Russell, J. Michael Sauder, Stephen R. Wasserman, Kenneth Weichert, Francis S. Willard, Aiping Zhang, and Spencer Emtage; Crystal structure of the human PRMT5:MEP50 complex, Proceedings of the National Academy of Sciences, 2012, Volume 109, pages 17960-17965.) Dilute purified enzyme to a working stock of 6.67 nM in assay buffer (50 mM TRIZMA® preset pH ˜8.5, 1 mM DTT, 0.005% TWEEN® 80 0.01% HSA).
Add enzyme (15 μL/well) to a 384-well assay plate (CORNING® cat. #3706). Add test compounds from a 10 mM DMSO stock solution to the plate as serial dilutions in assay buffer to achieve a final test concentrations ranging from 50.0 μM to 25 nM. Create a reaction mix containing 1 μM Histone H4 biotinylated peptide substrate, H-[…]-biotin (SEQ ID NO: 1), prepared by FastMoc chemistry with an ABI 431 peptide, and 4 μM ^3H-SAM; 15 Ci/mmol, 0.366 mCi/mL, 37 μM, PERKIN-ELMER® cat. # NET155000MC) in assay buffer. To each plate well, add 5 μL of the peptide/^3H-SAM reaction mix to yield final assay conditions of 5 nM enzyme, 1 ^3H-SAM, 250 nM peptide and 50 μM maximum test compound concentration with 0.5% DMSO, at a final volume of 20 μL. Incubate the assay for 2 hr at room temperature. Stop the reaction with the addition of guanidine HCl (5 M, 20 μL, Sigma cat. # G3272).
Suspend strepavidin YSI SPA scintillation beads (PERKIN-ELMER®, #RPNQ0012) at 1 mg/mL in pH ˜8.5 Tris buffer containing 5 M guanidine HCl. To each well, add 20 μL of this bead suspension, agitate the resulting mixtures, and incubate for 1 hr at room temperature prior to measuring their radioactivity, using a microplate liquid scintillation counter as an indication of the formation of methylated peptide product.
Generate raw data from the radioactivity measurement as counts per min (CPM). Employ an uninhibited control (DMSO) and maximum inhibited control (250 μM dehydrosinefungin, (isolated essentially as described in Berry, D. R. & Abbott, B. J. Incorporation of carbon-14-labeled compounds into sinefungin (A9145), a nucleoside antifungal antibiotic. J. Antibiot. 1978 (31) 185-191 and references cited therein)). […]

[3] = system: PRMT5-dependent alternative splicing of MDM4 in A375 melanoma cells; test: MDM4 Exon5/6 qPCR Assay in A375 Tumor Cells; format: cell-based; details: Homo sapiens, A-375, 72 hr, Mean ± SEM
Experimental: Culture A375 tumor cells (ATCC), a melanoma cancer cell line, to 70%-90% confluence in T150 flasks with the growth medium (DMEM; HYCLONE™ #SH30022 with 10% FBS; GIBCO® 10082-147 or equivalent). Treat the cells with standard trypsin/EDTA treatment for 3 min and aspirate and wash with PBS to release the adherent cells from the culture flask. Seed the cells into a 96 well plate (Costar 3596) at 5000/well in growth medium (90 μL). Incubate the plate overnight at 37° C. and 5% CO2 and treat the cells with test compound at serial dilutions ([…], final DMSO addition of 0.2% yield) for 72 hr. Measure activity relative to maximum (2.0 μM of Example 2 and minimum (0.2% DMSO) controls.
On Day 5 after incubation, remove the medium from the culture plates and wash the cells twice with cold PBS (150 μL/well). Prepare Lysis Working Reagent from the TAQMAN® Gene Expression Cells-to-CT Kit (INVITROGEN™ cat. # AM1729) by dilution of DNAse 1 into Lysis Solution at 1/100. Add Lysis Working Reagent (50 μL/well) to the cell plates, mix well, and incubate at room temperature for 5 min Add kit stop solution (5 μL) to each well, mix the wells, and incubate for 2 min at room temperature. Prepare Reverse Transcriptase Master Mix in the following volume ratios; RT buffer: Nuclease-free water: RT Enzyme at 62.5:31.25:6.25. Add RT mix (48 μL/well) to each well of a 96-well NUNC™ plate (THERMO SCIENTIFIC™ #260860). Add RT mix (20 μL) and each cell lysate sample (5 μL) into a 384 PCR plate (Clear Optical Reaction Plate, cat. #4309849, APPLIED BIOSYSTEMS®) quadrant 1 and add a second addition of RT Mix and cell lysate to quadrant 3. For the RT reaction, seal the plates and then place them in a thermal cycler set at 37° C. for 60 min; 95° C. for 5 min; stop at 4° C. For qPCR, prepare MDM4 exon 5 primers (Life Technologies Hs00967240-ml) and exon 6 primers (Life Technologies Hs00967242-ml) separately in the following volume ratios of RT mix: H2O: exon probe at 10:6:1. Add Exon 5 (17 μL) to odd columns of a 384 PCR plate and add exon 6 (17 μL) to the even columns. Add cDNA (3 μL, from the RT plate) by quadrant stamping to each well of the qPCR plate containing the 17 μL exon primer solution. In this manner, perform qPCR for both exons on cDNAs from a single RT reaction on an individual cell lysate. Seal the plates, spin, and place on a real-time PCR instrument (Life Technologies ViiA7 Real-Time PCR). […]
Retrieve CT data from the real-time PCR reader and perform the following calculations, where “CPD” is the value from compound-treated samples, and “DMSO” is the minimum control sample, using an Excel template: (Exon 6 CT CPD−Exon 6 CT DMSO)−(Exon 5 CT CPD−Exon 5 CT DMSO)=ΔCT 2^(−ΔCT)=Fold Change […]

[4] = system: GDM-1 cells; test: Combination with BCL2 inhibitor ABT-199 in AML cell lines, 4-day cell proliferation assay; format: cell-based; details: GDM-1, treatment duration 4 Days; single agent or combination; read-out: Absolute IC50 (cell proliferation)
Experimental: (§1) On day 1, plate GDM-1 [ATCC®, maintained throughout in GDM-1 assay medium: RPMI-1640 medium/20% heat-inactivated FBS (GIBCO®)] and EOL-1 cells [ATCC®, maintained throughout in EOL-1 assay medium: RPMI-1640 medium/10% heat-inactivated FBS (GIBCO®)] at 4000 and 10000 cells/well (100 μL/well) respectively, in a 96-well assay plate (BD FALCON® 35-3219). Incubate the plates in a 37° C. incubator (5% CO2) for 18-24 hr. On day 2, prepare 2.0% DMSO with assay medium (as indicated above or RPMI-1640/20% heat-inactivated FBS and RPMI-1640/10% FBS for GDM-1 and EOL-1, respectively) and add 100 μL to columns 3-12 in a preparation plate. Prepare test compounds ABT-199 at 10 μM in 2% DMSO and PRMT5 inhibitor Example 1 at 25 μM in 2% DMSO and dispense into wells A2 and B2, respectively, followed by serial dilution (1:3, 10 points) to wells A11 and B11, respectively. For combinational treatment, serially dilute test compound examples at 1:2 in assay medium (as indicated above or RPMI-1640/20% heat-inactivated FBS and RPMI-1640/10% FBS for GDM-1 and EOL-1, respectively) in wells C2-C11 (0.1 μM) to H2-H11, then serially dilute test compound ABT-199 1:3 from C2-H2 (1.0 μM) to C11-H11. […] Incubate plates for 10-15 min at room temperature before reading. Measure luminescence using the PERKIN-ELMER® ENVISION® Multi-Label Reader. […]

[5] = system: EOL-1 cells; test: Combination with BCL2 inhibitor ABT-199 in AML cell lines, 7-day cell proliferation assay; format: cell-based; details: EOL-1, treatment duration 7 Days; single agent or combination; read-out: Absolute IC50 (cell proliferation)
Experimental: as §1

pIC50 [2] | pEC50 [3] | Compound | percent inhibition of tumor volume versus vehicle [1] [%] | pIC50 [4] | pIC50 [5]
8.28 | 5.98 | Nc1ncnc2c1ccn2[C@@H]1O[C@H]([C@H](O)c2ccc(Cl)c(OC3CC3)c2)[C@@H](O)[C@H]1O [Example 4, (2R,3R,4S,5R)-2-(4-aminopyrrolo[2,3-d]pyrimidin-7-yl)-5-[(R)-[4-chloro-3-(cyclopropoxy)phenyl]-hydroxy-methyl]tetrahydrofuran-3,4-diol] | −75 | – | –
– | – | ABT-199 [reference compound] | – | 8.15 | 7.52
